Test results published in ChEMBL document CHEMBL3272246, “Biological active polycycloalkanes. 4. Phosphoric esters of trimethylenenorbornyl alcohols” (J Med Chem, 1977).
In brackets after ≈: the same amount, converted by molar mass. Where a name gives a salt, the structure may show the parent alone.

How the values were obtained:
[1] = system: Newcastle disease virus; experiment: Antiviral activity against Newcastle disease virus infected in chick embryo fibroblasts assessed as suppression of virus multiplication to 1% by measuring hemagglutinating activity by tube assay method; assay type: functional; conditions: avian paramyxovirus 1
[2] = Cytotoxicity against chick embryo fibroblasts after 24 hrs by microscopic analysis; assay type: cell-based, Gallus gallus, Fibroblast; conditions: chicken
[3] = system: Newcastle disease virus; experiment: Ratio of amantadine hydrochloride MIC to compound MIC for Newcastle disease virus infected in chick embryo fibroblasts; assay type: functional, avian paramyxovirus 1

Structure (SMILES)	MIC [1]	MCC at 24 h [2]	Ratio [3]
O=P(O)(O[C@H]1C[C@H]2C[C@H]1[C@@H]1CCC[C@H]21)O[C@H]1C[C@H]2C[C@H]1[C@@H]1CCC[C@H]21	550 µM (≈ 202 µg/mL)	550 µM	2
O=P(O[C@H]1C[C@H]2C[C@H]1[C@@H]1CCC[C@H]21)(O[C@H]1C[C@H]2C[C@H]1[C@@H]1CCC[C@H]21)O[C@H]1C[C@H]2C[C@H]1[C@@H]1CCC[C@H]21	1000 µM (≈ 501 µg/mL)	400 µM	
NC12CC3CC(CC(C3)C1)C2 [AMANTADINE HYDROCHLORIDE]	1300 µM	1300 µM	
